Measured values as given in patent US20230279020A9, “CARM1 INHIBITORS AND USES THEREOF” (Epizyme, Inc., priority 2013, published 2023).

target: Human CARM1 (PRMT4) (Homo sapiens (Human), UniProt Q86X55); experiment: CARM1 enzyme assay on peptide substrate (3H-SAM Flashplate); settings: Biochemical potencies, classification codes; read-out: Biochem IC50
Sequence (Q86X55 other isoform, or with tags, fused parts or gaps isoform Q86X55-1): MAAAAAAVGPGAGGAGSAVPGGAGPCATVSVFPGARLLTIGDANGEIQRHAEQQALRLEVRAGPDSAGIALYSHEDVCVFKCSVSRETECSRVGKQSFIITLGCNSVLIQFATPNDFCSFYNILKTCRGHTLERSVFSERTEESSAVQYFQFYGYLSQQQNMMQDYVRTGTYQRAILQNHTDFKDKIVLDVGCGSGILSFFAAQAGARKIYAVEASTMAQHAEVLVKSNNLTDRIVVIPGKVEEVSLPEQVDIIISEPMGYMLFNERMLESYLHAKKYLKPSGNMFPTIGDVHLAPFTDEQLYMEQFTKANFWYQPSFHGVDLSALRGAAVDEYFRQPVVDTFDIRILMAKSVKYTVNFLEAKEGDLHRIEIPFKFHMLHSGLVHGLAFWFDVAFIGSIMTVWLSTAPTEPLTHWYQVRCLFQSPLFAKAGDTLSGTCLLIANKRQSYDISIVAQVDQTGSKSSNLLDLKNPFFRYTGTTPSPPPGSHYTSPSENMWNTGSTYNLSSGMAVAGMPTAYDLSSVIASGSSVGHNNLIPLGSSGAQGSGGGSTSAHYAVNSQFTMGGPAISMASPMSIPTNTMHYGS

SMILES | IC50
CNC[C@@H](O)COc1cccc(-c2nc(NC3CCOCC3)c(C)c(-c3c(C)noc3C)n2)c1 [Example 56-1a] | < 100 nM
CNCC(O)COc1cccc(-c2nc(N(C)C)cc(N(C)C3CCOCC3)n2)c1 (centres unmarked) [Example 15-1] | < 100 nM
CNCC(O)COc1cccc(-c2nc(Nc3nccn3C)c(C)c(-c3c(C)noc3C)n2)c1 (centres unmarked) [Example 18-3] | < 100 nM
CNC[C@@H](O)COc1ccc(Cl)c(-c2nc(-c3c(C)noc3C)c(C)c(N3CC4(CCCO4)C3)n2)c1 [Example 121-3] | < 100 nM
CNCC(O)COc1cccc(-c2nc(N[C@H]3CCOC3)c(C)c(C(=O)N(C)CC3CCOCC3)n2)c1 (some centres unmarked) [Example 363-1a] | 100 to 1000 nM
CNCC(O)COc1cccc(-c2nc(NC3CN(C(=O)C4CC4)C3)c(C)c(-c3c(C)noc3C)n2)c1 (centres unmarked) [Example 264-1a] | < 100 nM
CNCC(O)COc1cccc(-c2nc(C3=CCCC3)cc(N(C)CCC#N)n2)c1 (centres unmarked) [Example 9-1] | < 100 nM
CNC[C@@H](O)COc1ccc(Cl)c(-c2nc(N[C@@H]3C[C@@H](C)O[C@@H](C)C3)c(C)c(-c3c(C)noc3C)n2)c1 [Example 182-3] | < 100 nM
CNCC(O)COc1cccc(-c2nc(-c3nc(C)cn3C)cc(N(C)C3CCOCC3)n2)c1 (centres unmarked) [Example 519-1a] | < 100 nM
CNCC(O)COc1cccc(-c2nc(N[C@H]3CCOC3)c(C)c(N3CCOCC3)n2)c1 (some centres unmarked) [Example 26-1] | < 100 nM
CNC[C@@H](O)COc1ccc(Cl)c(-c2nc(N[C@H]3CC[C@@H](OC)C3)c(C)c(-c3c(C)noc3C)n2)c1 [Example 212-3] | < 100 nM
CNCC(O)COc1cccc(-c2nc(OCC3CCN(C(C)=O)CC3)c(C)c(-c3c(C)noc3C)n2)c1 (centres unmarked) [Example 287-1a] | < 100 nM
CNC[C@@H](O)COc1ccc(Cl)c(-c2nc(N[C@@H]3CCN(C)C[C@@H]3F)c(C)c(-c3c(C)noc3C)n2)c1 [Example 194-3] | < 100 nM
CNCC(O)COc1cccc(-c2nc(NC3CCOCC3C)c(C)c(-c3c(C)noc3C)n2)c1 (centres unmarked) [Example 269-1a] | < 100 nM
CNCC(O)COc1cccc(-c2nc(-c3c(C)noc3C)c(C)c(N3CCO[C@H](CN(C)C(=O)OC)C3)n2)c1 (some centres unmarked) [Example 127-1a] | < 100 nM
CNCC(O)COc1cccc(-c2nc(-c3c(C)noc3C)cc(N3CCNC(C(=O)O)C3)n2)c1 (centres unmarked) [Example 29-1a] | < 100 nM
CNCC(O)COc1cccc(-c2cc(N(C)C3CCOCC3)nc(-c3ccncc3)n2)c1 (centres unmarked) [Example 2-1] | < 100 nM
CNC[C@@H](O)COc1ccc(Cl)c(-c2nc(-c3c(C)noc3C)c(C)c(N3CCc4ncccc43)n2)c1 [Example 199-3] | < 100 nM
CNC[C@@H](O)COc1ccc(Cl)c(-c2nc(N[C@@H]3CO[C@@H](C)C3)c(Cl)c(-c3c(C)noc3C)n2)c1 [Example 181-3] | < 100 nM
CNCC(O)COc1cccc(-c2nc(-c3ccnc(OC)c3)cc(N(C)C3CCOCC3)n2)c1 (centres unmarked) [Example 541-1a] | < 100 nM
CNC[C@@H](O)COc1ccc(F)c(-c2nc(-c3c(C)noc3C)c(C)c(N3Cc4cccc(F)c4C3)n2)c1 [Example 266-3] | < 100 nM
CNC[C@@H](O)COc1ccc(Cl)c(-c2nc(-c3c(C)noc3C)c(C)c(N3Cc4[nH]c(=O)[nH]c(=O)c4C3)n2)c1 [Example 279-3] | < 100 nM
CNC[C@@H](O)COc1ccc(Cl)c(-c2nc(-c3c(C)noc3C)c(Cl)c(N3Cc4nc(C)sc4C3)n2)c1 [Example 243-3] | < 100 nM

SMILES | IC50
CNC[C@H](O)COc1ccc(Cl)c(-c2nc(-c3c(C)noc3C)c(C)c(N3CC4(CCN(C5CC5)CC4)C3)n2)c1 [Example 55-3] | < 100 nM
CNC[C@H](O)COc1ccc(Cl)c(-c2nc(-c3c(C)noc3C)c(C)c(N3CCC4(CC3)CN(C(=O)OC)C4)n2)c1 [Example 85-3] | < 100 nM
CNCC(O)COc1cccc(-c2nc(-c3csnc3C)cc(N(C)C3CCOCC3)n2)c1 (centres unmarked) [Example 493-1a] | < 100 nM
CNCC(O)COc1cccc(-c2nc(-c3ccnc(C(=O)NC)c3)cc(N(C)C3CCOCC3)n2)c1 (centres unmarked) [Example 510-1a] | < 100 nM
CNCC(O)COc1cccc(-c2nc(-c3c(C)noc3C)cc(N(C)CC3CCOCC3)n2)c1 (centres unmarked) [Example 87-1a] | < 100 nM
CNC[C@@H](O)COc1ccc(Cl)c(-c2nc(-c3c(C)noc3C)c(C)c(N3Cc4cnc(C5CC5)nc4C3)n2)c1 [Example 259-3] | < 100 nM
CNCC(O)COc1cccc(-c2nc(NCC3CCN(C(=O)C4CC4)CC3)c(C)c(-c3c(C)noc3C)n2)c1 (centres unmarked) [Example 249-1a] | < 100 nM
CNC[C@@H](O)COc1ccc(Cl)c(-c2nc(N[C@@H]3CCO[C@H](C)C3)c(Cl)c(-c3c(C)noc3C)n2)c1 [Example 155-3] | < 100 nM
CNCC(O)COc1cccc(-c2nc(N[C@@H]3CC[C@H](O)C3)c(C)c(-c3c(C)noc3C)n2)c1 (some centres unmarked) [Example 163-1a] | < 100 nM
CNCC(O)COc1ccc(Cl)c(-c2nc(NC3CCN(C(=O)OC)CC3)c(C)c(-c3c(C)noc3C)n2)c1 (centres unmarked) [Example 270-1a] | < 100 nM
CNCC(O)COc1cccc(-c2nc(N[C@@H]3CCOC3)c(C)c(N3Cc4ccncc4C3)n2)c1 (some centres unmarked) [Example 427-1a] | < 100 nM
CNCC(O)COc1cccc(-c2nc(-c3cncnc3)cc(N(C)C3CCOCC3)n2)c1 (centres unmarked) [Example 525-1a] | < 100 nM
CNC[C@@H](O)COc1ccc(Cl)c(-c2nc(-c3c(C)noc3C)c(C)c(N3Cc4cnn(CC(F)(F)F)c4C3)n2)c1 [Example 265-3] | < 100 nM
CNCC(O)COc1cccc(-c2nc(NC3CN(CC(F)F)C3)c(C)c(-c3c(C)noc3C)n2)c1 (centres unmarked) [Example 237-1a] | < 100 nM
CNCC(O)COc1cc(Cl)cc(-c2nc(-c3ccncc3)cc(N3CCOCC3)n2)c1 (centres unmarked) [Example 632-1a] | < 100 nM
CNCC(O)COc1cccc(-c2nc(NC3CCOC3)c(C)c(N3CCN(CCF)CC3)n2)c1 (centres unmarked) [Example 446-1a] | < 100 nM
CNCC(O)COc1cccc(-c2nc(NC3CCOC3)c(C)c(-c3cn(C)nn3)n2)c1 (centres unmarked) [Example 335-1a] | < 100 nM
CNCC(O)COc1cccc(-c2nc(NC3CN(C(=O)OC)C3)c(C)c(-c3c(C)noc3C)n2)c1 (centres unmarked) [Example 275-1a] | < 100 nM
CCOC(=O)N1CCOC[C@@H]1CNc1nc(-c2cc(OC[C@H](O)CNC)ccc2F)nc(-c2c(C)noc2C)c1C [Example 62-3] | < 100 nM
CNCC(O)COc1ccc(Cl)c(-c2nc(O[C@H]3CCN(C(=O)OC)[C@@H](C)C3)c(C)c(-c3c(C)noc3C)n2)c1 (some centres unmarked) [Example 36-3] | < 100 nM
CCOC(=O)N1CCC(Nc2nc(-c3cccc(OCC(O)CNC)c3)nc(-c3c(C)noc3C)c2C)CC1 (centres unmarked) [Example 189-1a] | < 100 nM
CNCC(O)COc1cc(Cl)cc(-c2nc(C(=O)NCC3CCOCC3)cc(N(C)C3CCOCC3)n2)c1 (centres unmarked) [Example 508-1a] | < 100 nM
CNC[C@H](O)COc1ccc(Cl)c(-c2nc(NC[C@H]3COCCN3C(=O)OC)c(C)c(-c3c(C)noc3C)n2)c1 [Example 58-3] | < 100 nM

SMILES | IC50
CNCC(O)COc1cccc(-c2nc(-c3c(C)noc3C)cc(N3CCN(C4CCOCC4)CC3)n2)c1 (centres unmarked) [Example 166-1a] | < 100 nM
CNCC(O)COc1cccc(-c2nc(N[C@@H]3CCOC3)c(C)c(N3CCS(=O)(=O)CC3)n2)c1 (some centres unmarked) [Example 425-1a] | < 100 nM
CNCC(O)COc1cccc(-c2nc(-c3c(C)noc3C)cc(N3C[C@H]4C[C@@H]3CN4S(C)(=O)=O)n2)c1 (some centres unmarked) [Example 100-1a] | < 100 nM
CNCC(O)COc1cccc(-c2nc(N[C@@H]3CCOC3)c(C)c(N3CCC4(CCOCC4)C3)n2)c1 (some centres unmarked) [Example 462-1a] | < 100 nM
CNC[C@H](O)COc1cccc(-c2nc(NC3CCOCC3)c(C)c(-c3c(C)noc3C)n2)c1 [Example 55-1a] | < 100 nM
CNC[C@@H](O)COc1ccc(Cl)c(-c2nc(N[C@H]3CN(C4CC4)C[C@@H]3F)c(C)c(-c3c(C)noc3C)n2)c1 [Example 203-3] | < 100 nM
CCOC(=O)N1CC[C@H](Nc2nc(-c3cc(OC[C@H](O)CNC)ccc3Cl)nc(-c3c(C)noc3C)c2C)C1 [Example 150-3] | < 100 nM
CCOC(=O)N1CCCC[C@@H]1CNc1nc(-c2cc(OC[C@H](O)CNC)ccc2Cl)nc(-c2c(C)noc2C)c1C [Example 154-3] | < 100 nM
CNCC(O)COc1cccc(-c2nc(N[C@@H]3CCOC3)c(C)c(N3CCN(S(C)(=O)=O)CC3)n2)c1 (some centres unmarked) [Example 434-1a] | < 100 nM
CNCC(O)COc1cccc(-c2nc(-c3cnc(C)n3C)cc(N(C)C3CCOCC3)n2)c1 (centres unmarked) [Example 517-1a] | < 100 nM
CCOC(=O)N1CC[C@H](Nc2nc(-c3cc(OC[C@H](O)CNC)ccc3Cl)nc(-c3c(C)noc3C)c2Cl)C1 [Example 151-3] | < 100 nM
CNCC(O)COc1ccc(Cl)c(-c2nc(NCC3COCCO3)c(C)c(-c3c(C)noc3C)n2)c1 (centres unmarked) [Example 41-3] | < 100 nM
CNC[C@@H](O)COc1ccc(Cl)c(-c2nc(-c3c(C)noc3C)c(C)c(N3CCC4(CN(C(=O)OC)C4)C3)n2)c1 [Example 177-3] | < 100 nM
CNC[C@H](O)COc1ccc(F)c(-c2nc(NC3CCOCC3)c(C)c(-c3c(C)noc3C)n2)c1 [Example 72-3] | < 100 nM
CNC[C@@H](O)COc1ccc(Cl)c(-c2nc(-c3c(C)noc3C)c(C)c(N3CC4(CCN(C(=O)OC(C)C)C4)C3)n2)c1 [Example 286-3] | < 100 nM
CNC[C@@H](O)COc1ccc(Cl)c(-c2nc(N[C@H]3C[C@H](OC)C3)c(Cl)c(-c3c(C)noc3C)n2)c1 [Example 217-3] | < 100 nM
CNC[C@@H](O)COc1ccc(Cl)c(-c2nc(NC3CC(COC)C3)c(C)c(-c3c(C)noc3C)n2)c1 (some centres unmarked) [Example 219-3] | < 100 nM
CNCC(O)COc1cccc(-c2nc(-c3c(C)noc3C)cc(N3CCNC(C(F)(F)F)C3)n2)c1 (centres unmarked) [Example 131-1a] | < 100 nM
CNCC(O)COc1cccc(-c2nc(-c3c(C)noc3C)cc(N3CCN(C4CC4)CC3)n2)c1 (centres unmarked) [Example 30-1a] | < 100 nM
CNCC(O)COc1cccc(-c2nc(Nc3cnc(C)nc3)cc(-c3c(C)noc3C)n2)c1 (centres unmarked) [Example 49-1a] | < 100 nM
CNCC(O)COc1cccc(-c2nc(N[C@@H]3CCOC3)c(C)c(N3CC[C@@H](O)C3)n2)c1 (some centres unmarked) [Example 437-1a] | < 100 nM
CNC[C@@H](O)COc1ccc(Cl)c(-c2nc(-c3c(C)noc3C)c(C)c(N3CC(F)(F)C3)n2)c1 [Example 184-3] | < 100 nM
